Results reported in patent publication US20240287138A1, “CYCLIC PEPTIDES FOR INHIBITING TNF RECEPTOR 1 ACTIVITY” (Merck Sharp & Dohme LLC, priority 2023, published 2024).
pIC50: −log10 of the molar value. Numbered stars: 1 amine (or outer) side, 2 acyl side, 3 side chain; on linkers, the order of the positions; unused ones are H or OH. Bridge positions count the residues as written; N and C are the ends. Square brackets hold non-standard residues; d marks the D form. Peptide text beside a SMILES is read from it. * marks the point of attachment. Trp(βS-Me,7-OMe) = COc1cccc2c([C@H](C)[C@H](N)C(=O)O)c[nH]c12; X49 = C[N+](C)(C)CC(=O)N[C@H]1C[C@H](C(=O)[*:2])N([*:1])C1; Trp(1-CH2COOH) = N[C@@H](Cc1cn(CC(=O)O)c2ccccc12)C(=O)O; Trp(βS-Me) = C[C@@H](c1c[nH]c2ccccc12)[C@H](N)C(=O)O; Phe(2-F,4-COOH) = N[C@@H](Cc1ccc(C(=O)O)cc1F)C(=O)O; Trp(7-CN) = N#Cc1cccc2c(C[C@H](N)C(=O)O)c[nH]c12; Trp(7-Cl) = N[C@@H](Cc1c[nH]c2c(Cl)cccc12)C(=O)O; X43 = O=C(O)[C@H]1CC[C@@H](C(=O)[*:2])N([*:1])C1; Biotin = O=C1N[C@H]2[C@H](CS[C@H]2CCCCC(=O)*)N1; Phe(4-CONH2) = NC(=O)c1ccc(C[C@H](N)C(=O)O)cc1; Phe(4-COOH) = N[C@@H](Cc1ccc(C(=O)O)cc1)C(=O)O; Ala(4-Pyridazinyl) = N[C@@H](Cc1ccnnc1)C(=O)O; Trp(7-aza) = N[C@@H](Cc1c[nH]c2ncccc12)C(=O)O; Pip(5R-OH) = O=C(O)[C@@H]1CC[C@@H](O)CN1; X1 = O=C([C@@H]1CC[C@H](N[*:1])C1)[*:2]; Pro(4R-NH2) = N[C@H]1CN[C@H](C(=O)O)C1; X42 = C[C@@H](CO)N(CC(=O)[*:2])[*:1]; Pip(4-aza) = O=C(O)[C@@H]1CNCCN1; 4Pal = N[C@@H](Cc1ccncc1)C(=O)O; NMeE = CN[C@@H](CCC(=O)O)C(=O)O; dHyp = O=C(O)[C@H]1C[C@H](O)CN1; αMeS = C[C@](N)(CO)C(=O)O; NMeA = CN[C@@H](C)C(=O)O; Nle = CCCC[C@H](N)C(=O)O; AEA = NCCOCC(=O)O; Sar = CNCC(=O)O

Target: T1, TNFα-induced NF-κB signal transduction pathway (TNFR1 signaling) in THP-1 cells (Homo sapiens, UniProt P19438)
T1 sequence (P19438 30-455): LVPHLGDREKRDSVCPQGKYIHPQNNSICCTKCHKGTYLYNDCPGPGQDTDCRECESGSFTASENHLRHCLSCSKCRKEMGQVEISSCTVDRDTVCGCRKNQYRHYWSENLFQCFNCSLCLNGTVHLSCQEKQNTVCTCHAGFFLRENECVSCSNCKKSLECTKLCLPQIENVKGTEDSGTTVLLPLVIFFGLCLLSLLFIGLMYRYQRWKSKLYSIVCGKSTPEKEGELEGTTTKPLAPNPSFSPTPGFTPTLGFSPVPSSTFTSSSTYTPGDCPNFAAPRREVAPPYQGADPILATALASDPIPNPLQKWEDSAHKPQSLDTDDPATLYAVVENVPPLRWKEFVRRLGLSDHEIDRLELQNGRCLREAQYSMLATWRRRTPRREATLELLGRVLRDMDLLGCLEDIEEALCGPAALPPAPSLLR
Assay: THP-1 Lucia NF-κB reporter cell assay, inhibition of TNFα-induced NF-κB signaling
Type: cell-based
Details: THP-1 NF-κB Lucia reporter cells, 10 ng/mL TNFα, 16-18 h, secreted luciferase; read-out: THP-1 IC50
Experimental: C. Procedure for THP-1 Lucia NF-κB cells
The inhibition of TNFα-induced NF-κB signal transduction pathways was evaluated in THP-1 cells. THP-1 cells harboring NF-κB-inducible Lucia™ reporter gene (InvivoGen, cat. #thp1-nfkb) designed for monitoring NF-κB signal transduction pathway was employed to assess the inhibitory effect macrocyclic peptides on TNFR1 signaling. The cells were cultured in media containing RPMI 1640, 2 mM L-glutamine, 25 mM HEPES, 10% heat-inactivated fetal bovine serum with appropriate selection antibiotics. Assays were performed in media that was devoid of selection antibiotics. For profiling, 125 nL of peptides in DMSO (10 mM) were dispensed into Falcon® 384-well Optilux white/clear flat bottom TC-treated microtest microplate (Corning, cat. #353963) using Echo® 555. […] A suspension of 1 million cells/mL was dispensed at 20 μL/well in a 384-well plate to a density of 20,000 cells/well and pre-incubated with peptides at 37° C. for 1 h. Subsequently, 5 μL of TNF containing media (recombinant human TNFα; R&D Systems USA, cat. #210-TA-005/CF) or TNF-free media (for controls) was added to the wells. The final concentration of TNFα in the assay in 10 ng/mL. After o.n. incubation at 37° C. (16-18 h), 5 μL of supernatant was aspirated and transferred to a 384-well microplate (PerkinElmer, cat. #6007680) for measurement of secreted luciferase activity with 25 μL of QUANTI-Luc™ luminescence assay reagent (InvivoGen, cat. #rep-qlc1) in each well. The luminescence was measured in EnVision® Multimode Plate Reader (PerkinElmer). Dose response curves were analyzed using a 4-parameter logistic model to calculate IC50 values, reported in Table 2, using TIBCO® Spotfire® software employing appropriate Minimum and Maximum controls.

Compound	pIC50
CCCC[C@@H]1NC(=O)[C@@H]2CC[C@@H](C2)NC(=O)[C@H]([C@@H](C)c2c[nH]c3c(OC)cccc23)NC(=O)CN(C)C(=O)[C@H](Cc2ccc(C(=O)O)cc2)NC(=O)[C@H](Cc2ccc(C(N)=O)cc2)NC(=O)[C@](C)(CO)NC(=O)[C@H](Cc2c[nH]c3c(Cl)cccc23)NC(=O)[C@H](Cc2ccc(C(=O)O)cc2)NC(=O)[C@H](CC(N)=O)NC(=O)[C@H]2C[C@H](O)CN2C(=O)[C@H](Cc2c[nH]c3ccccc23)NC(=O)[C@@H]2CC[C@@H](O)CN2C(=O)[C@H](Cc2ccnnc2)NC1=O [SEQ ID NO. 105] (cyclo(N[Phe(4-COOH)][Trp(7-Cl)][αMeS][Phe(4-CONH2)][Phe(4-COOH)][Sar][Trp(βS-Me,7-OMe)][X1][Nle][Ala(4-Pyridazinyl)][Pip(5R-OH)]W[dHyp]))	9.15
CCCC[C@@H]1NC(=O)CSC[C@@H](C(N)=O)NC(=O)[C@H]([C@@H](C)c2c[nH]c3c(OC)cccc23)NC(=O)CN(C)C(=O)[C@H](Cc2ccc(O)cc2)NC(=O)[C@H](Cc2ccc(C(=O)O)cc2)NC(=O)[C@](C)(CO)NC(=O)[C@H](Cc2c[nH]c3c(Cl)cccc23)NC(=O)[C@H](Cc2ccncc2)NC(=O)[C@H](CC(N)=O)NC(=O)[C@H](CCC(=O)O)N(C)C(=O)[C@H](Cc2c[nH]c3ncccc23)NC(=O)[C@@H]2C[C@@H](N)CN2C(=O)[C@H](Cc2ccncc2)NC1=O [SEQ ID NO. 125] ({CH2CO}-[Nle][4Pal][Pro(4R-NH2)][Trp(7-aza)][NMeE]N[4Pal][Trp(7-Cl)][αMeS][Phe(4-COOH)]Y[Sar][Trp(βS-Me,7-OMe)]C-NH2; thioether N-14)	8.39
CN1CC(=O)N[C@@H](CC(N)=O)C(=O)N[C@@H](Cc2ccc(O)cc2)C(=O)N[C@@H](Cc2c[nH]c3ccccc23)C(=O)N[C@@H](CO)C(=O)N[C@@H](Cc2ccc(O)cc2)C(=O)N[C@@H](Cc2ccc(O)cc2)C(=O)N(C)CC(=O)N[C@@H](Cc2c[nH]c3ccccc23)C(=O)N[C@H](C(=O)NCC(=O)NCCOCC(=O)N[C@@H](CCCCNC(=O)CCCC[C@@H]2SC[C@@H]3NC(=O)N[C@@H]32)C(N)=O)CSCC(=O)N[C@@H](Cc2ccccc2)C(=O)N[C@@H](Cc2ccc(O)cc2)C(=O)N[C@@H](CO)C(=O)N[C@@H](Cc2c[nH]c3ccccc23)C1=O [SEQ ID NO. 1] ({CH2CO}-FYSW[Sar]NYWSYY[Sar]WCG[AEA]K(Biotin)-NH2; thioether N-14)	6.64
CCCC[C@@H]1NC(=O)[C@@H]2CC[C@@H](C2)NC(=O)[C@H]([C@@H](C)c2c[nH]c3c(OC)cccc23)NC(=O)CN(C)C(=O)[C@H](Cc2ccc(O)cc2)NC(=O)[C@H](Cc2ccc(C(=O)O)cc2)NC(=O)[C@](C)(CO)NC(=O)[C@H](Cc2c[nH]c3c(Cl)cccc23)NC(=O)[C@H](Cc2ccncc2)NC(=O)[C@H](CC(N)=O)NC(=O)[C@H](CCC(=O)O)N(C)C(=O)[C@H](Cc2c[nH]c3ccccc23)NC(=O)[C@@H]2CC[C@H](C(=O)O)CN2C(=O)[C@H](Cc2ccncc2)NC1=O [SEQ ID NO. 120] (cyclo([4Pal][Trp(7-Cl)][αMeS][Phe(4-COOH)]Y[Sar][Trp(βS-Me,7-OMe)][X1][Nle][4Pal][X43]W[NMeE]N))	8.85
C[C@@H](c1c[nH]c2ccccc12)[C@@H]1NC(=O)[C@H](CO)NC(=O)[C@H](Cc2ccc(O)cc2)NC(=O)[C@H](CCCCN)NC(=O)CSC[C@@H](C(N)=O)NC(=O)[C@H](Cc2c[nH]c3ccccc23)NC(=O)CN(C)C(=O)[C@H](Cc2ccc(O)cc2)NC(=O)[C@H](Cc2ccc(C(=O)O)cc2)NC(=O)[C@](C)(CO)NC(=O)[C@H](Cc2c[nH]c3ccccc23)NC(=O)[C@H](Cc2ccncc2)NC(=O)[C@H](CC(N)=O)NC(=O)[C@H](C)N(C)C1=O [SEQ ID NO. 36] ({CH2CO}-KYS[Trp(βS-Me)][NMeA]N[4Pal]W[αMeS][Phe(4-COOH)]Y[Sar]WC-NH2; thioether N-14)	8.66
CCCC[C@@H]1NC(=O)[C@@H]2CC[C@@H](C2)NC(=O)[C@H]([C@@H](C)c2c[nH]c3c(OC)cccc23)NC(=O)CN(C)C(=O)[C@H](Cc2ccc(O)cc2)NC(=O)[C@H](Cc2ccc(C(=O)O)cc2F)NC(=O)[C@](C)(CO)NC(=O)[C@H](Cc2c[nH]c3c(Cl)cccc23)NC(=O)[C@H](Cc2ccncc2)NC(=O)[C@H](CC(N)=O)NC(=O)[C@H](CCC(=O)O)N(C)C(=O)[C@H](Cc2c[nH]c3ccccc23)NC(=O)[C@@H]2CNCCN2C(=O)[C@H](Cc2ccncc2)NC1=O [SEQ ID NO. 7] (cyclo([4Pal][Trp(7-Cl)][αMeS][Phe(2-F,4-COOH)]Y[Sar][Trp(βS-Me,7-OMe)][X1][Nle][4Pal][Pip(4-aza)]W[NMeE]N))	8.80
CCCC[C@@H]1NC(=O)[C@@H]2CC[C@@H](C2)NC(=O)[C@H]([C@@H](C)c2c[nH]c3c(OC)cccc23)NC(=O)CN(C)C(=O)[C@H](Cc2ccc(C(N)=O)cc2)NC(=O)[C@H](Cc2ccc(C(N)=O)cc2)NC(=O)[C@](C)(CO)NC(=O)[C@H](Cc2c[nH]c3c(C#N)cccc23)NC(=O)[C@H](Cc2ccc(C(=O)O)cc2)NC(=O)[C@H](CC(N)=O)NC(=O)CN([C@@H](C)CO)C(=O)[C@H](Cc2c[nH]c3ncccc23)NC(=O)[C@@H]2CC[C@@H](O)CN2C(=O)[C@H](Cc2ccncc2)NC1=O [SEQ ID NO. 23] (cyclo([4Pal][Pip(5R-OH)][Trp(7-aza)][X42]N[Phe(4-COOH)][Trp(7-CN)][αMeS][Phe(4-CONH2)][Phe(4-CONH2)][Sar][Trp(βS-Me,7-OMe)][X1][Nle]))	9.10
CCCC[C@@H]1NC(=O)[C@@H]2CC[C@@H](C2)NC(=O)[C@H]([C@@H](C)c2c[nH]c3c(OC)cccc23)NC(=O)CN(C)C(=O)[C@H](Cc2ccc(O)cc2)NC(=O)[C@H](Cc2ccc(C(=O)O)cc2)NC(=O)[C@](C)(CO)NC(=O)[C@H](Cc2c[nH]c3c(Cl)cccc23)NC(=O)[C@H](Cc2ccc(C(=O)O)cc2F)NC(=O)[C@H](CC(N)=O)NC(=O)[C@H](CCC(=O)O)N(C)C(=O)[C@H](Cc2c[nH]c3ccccc23)NC(=O)[C@@H]2CNCCN2C(=O)[C@H](Cc2ccncc2)NC1=O [SEQ ID NO. 108] (cyclo([4Pal][Pip(4-aza)]W[NMeE]N[Phe(2-F,4-COOH)][Trp(7-Cl)][αMeS][Phe(4-COOH)]Y[Sar][Trp(βS-Me,7-OMe)][X1][Nle]))	8.92
CCCC[C@@H]1NC(=O)[C@@H]2CC[C@@H](C2)NC(=O)[C@H]([C@@H](C)c2c[nH]c3c(OC)cccc23)NC(=O)CN(C)C(=O)[C@H](Cc2ccc(C(=O)O)cc2)NC(=O)[C@H](Cc2ccc(C(N)=O)cc2)NC(=O)[C@](C)(CO)NC(=O)[C@H](Cc2c[nH]c3c(C#N)cccc23)NC(=O)[C@H](Cc2ccc(C(=O)O)cc2)NC(=O)[C@H](CC(N)=O)NC(=O)[C@H]2C[C@H](NC(=O)C[N+](C)(C)C)CN2C(=O)[C@H](Cc2cn(CC(=O)O)c3ccccc23)NC(=O)[C@@H]2CNCCN2C(=O)[C@H](Cc2ccncc2)NC1=O [SEQ ID NO. 139] (cyclo([4Pal][Pip(4-aza)][Trp(1-CH2COOH)][X49]N[Phe(4-COOH)][Trp(7-CN)][αMeS][Phe(4-CONH2)][Phe(4-COOH)][Sar][Trp(βS-Me,7-OMe)][X1][Nle]))	9.00
